# Source: paper PMC8910920 (International Journal of Molecular Sciences, 2022)
# Where “and” joins values, the source holds several entries; their conditions need not be identical. Equal values may be shown once.
# Legend:
# [1] = system: serum proteins; experiment: Protein binding; type: in vitro ADME, human
# [2] = system: DRG sensory neurons; experiment: Current-clamp, membrane resting potential of DRG sensory neurons; type: cell-based, rat; conditions: 10 μM
# Description: In order to test if compound RGM8-51 could affect the membrane resting potential (MRP) of DRG sensory neurons, we also measured MRP of sensory neurons in the current-clamp mode of patch-clamp.
# Changes in membrane potential were studied in neonatal DRGs isolated from 3–5 days-old Wistar rats. After isolation, DRGs were digested first using collagenase type IA (0.25% w/v) in DMEM GlutaMax with penicillin/streptomycin (P/S) solution (1% v/v) for 1 h (37 °C, 5% CO2, ThermoScientific incubator) and secondly by mechanical dissociation. Single cell suspension was passed through a […] cell strainer and washed with DMEM GlutaMax with FBS (10%v/v) and P/S solution (1% v/v). […]
# For current-clamp recordings from rat DRG neurons the intracellular pipette solution contained (in mM): 4 NaCl, 126 K gluconate, 0.02 CaCl2, 1 MgSO4, 5 HEPES, 15 glucose, 3 ATP, 0.1 GTP and 5 EGTA, pH 7.2 with KOH and the extracellular solution contained (in mM): 140 NaCl, 4 KCl, 2 CaCl2, 2 MgCl2, 10 HEPES, 5 glucose and 20 mannitol, pH 7.4 with NaOH. The membrane potential was measured in the absence and the presence of compound RGM8-51 at 10 μM in a time interval of 1 min.
# Data analysis: For the whole-cell patch-clamp experiments, results are expressed as the percentage of remaining activation of the TRPM8 channel. […] All data are expressed as the mean ± standard error of the mean (SEM) (n = 5–8). […]
structure (smiles),measurement,setting,value
"C[C@@H]1C(=O)N(C[C@H](Cc2ccccc2)N(Cc2ccccc2)Cc2ccccc2)[C@]1(Cc1ccccc1)C(=O)OC(C)(C)C [RGM8-51, 4(S)-Benzyl-3S-methyl-4-(tert-butoxy)carbonyl-1-[(2′S-dibenzylamino-3′-phenyl)prop-1′-yl]-2-oxoazetidine]",Binding to proteins (%),[1],100% and 99–100%
same,effect on membrane resting potential (MRP),[2],did not alter the MRP
